Source: US6926890B2, “Non-invasive approach for assessing tumors in living animals” (priority 2000, dated 2005)
Entries after “also recorded” stand apart in the source; their conditions may differ.

What was measured:
EMT6-CG tumors = assay: Ganciclovir treatment of control EMT6-CG tumors monitored by urinary β-hCG; format: in vivo, Balb/c mice; conditions: control EMT6-CG tumors without thymidine kinase
Procedure: (§1) FIG. 5C. Urinary β-hCG levels before and after ganciclovir (GCV) treatment of intraperitoneal tumors. Five Balb/c mice were injected intraperitoneally with 4×10^6 EMT6-CG-TK cells (black symbols). They received a four-day course of ganciclovir (150 mg/kg/day), administered intraperitoneally beginning three days after tumor cell injection.
(§2) The β-hCG MAIAclone kit (Polymedco Inc. Cortlandt Manor, N.Y.), based on an immunoradiometric system, was used for quantitative determination of urinary β-hCG. Fifty μl of mouse urine samples diluted to achieve a final β-hCG concentration of 2.5-20 mIU/ml, standards, positive and negative controls were mixed with 0.5 ml of ^125I anti-hCG antibodies in 12×75 mm glass tubes (VWR Scientific, Boston, Mass.) and incubated at 37° C. for 15 min. […] The radioactivity of each sample was analyzed in a Gamma 5500 counter (Beckman, Fullerton, Calif.). […] Urinary β-hCG levels were normalized to urinary creatinine measured with a Roche Hitachi 917 analyzer (Roche Diagnostics, Indianapolis, Ind.). The ratio of β-hCG to creatinine was expressed as mIU β-hCG/mg creatinine.
(§3) Next the recombinant tumor system of the present invention was applied to a chemotherapeutic model. […] The difference between the kinetics of tumor cell death mediated by surgery and chemotherapy is readily evident through comparison of FIGS. 5A and 5C.

EMT6-CG-TK cells = assay: Ganciclovir treatment of intraperitoneal EMT6-CG-TK tumors monitored by urinary β-hCG; format: in vivo, Balb/c mice
Procedure: as §1, §2, §3

[1] = Comparison of β-hCG concentrations in urine and serum of mice with subcutaneous B16-CG tumors; format: in vivo; conditions: serum 10-240 mIU/ml, six mice
Procedure: The β-hCG MAIAclone kit (Polymedco Inc. Cortlandt Manor, N.Y.), based on an immunoradiometric system, was used for quantitative determination of urinary β-hCG. Fifty μl of mouse urine samples diluted to achieve a final β-hCG concentration of 2.5-20 mIU/ml, standards, positive and negative controls were mixed with 0.5 ml of ^125I anti-hCG antibodies in 12×75 mm glass tubes (VWR Scientific, Boston, Mass.) and incubated at 37° C. for 15 min. Two hundred μl of the magnetic separation matrix provided with the kit was then added to each tube and incubated for 5 min at room temperature. The magnetic reagent with bound β-hCG was separated using a magnetic concentrator (Polymedco Inc.). The matrix was washed in 0.5 ml of the MAIAclone washing buffer provided with the kit and reseparated magnetically. The radioactivity of each sample was analyzed in a Gamma 5500 counter (Beckman, Fullerton, Calif.). The minimal detectable level of β-hCG was 2.5 mIU/ml. Urinary β-hCG levels were normalized to urinary creatinine measured with a Roche Hitachi 917 analyzer (Roche Diagnostics, Indianapolis, Ind.). The ratio of β-hCG to creatinine was expressed as mIU β-hCG/mg creatinine.
To determine whether β-hCG would be excreted in the urine of mice, as it is in pregnant women, the concentrations of β-hCG in urine and serum of mice with subcutaneous B16-CG tumors were compared. […]

[2] = Clearance of urinary β-hCG after surgical removal of subcutaneous SW480-CG tumors; format: in vivo, athymic (nu/nu) mice
Procedure: Female mice, 10-12 weeks old, were obtained from Harlan (Indianapolis, Ind.). For tail vein injections, 10^5 B 16-CG cells in 0.1 ml PBS were injected into C57BL/6 mice. For intraperitoneal administration, 2×10^6 EMT6-CG cells in 0.3 ml PBS were injected intraperitoneally into Balb/c mice. For intrasplenic injection, 10^6 B16-CG cells in 0.1 ml PBS were injected into the spleens of athymic (nu/nu) mice. For subcutaneous injection, 3×10^6 B16-CG cells or 8×10^6 SW480-CG cells in 0.1 ml PBS were injected into subcutaneous tissues adjacent to the lower spine of athymic (nu/nu) mice.
as §2, with “creatinine. […]” for “creatinine.”

Molecule | Tumor response to ganciclovir (urinary β-hCG) (EMT6-CG tumors) | Urinary β-hCG levels after ganciclovir treatment (EMT6-CG-TK cells; ganciclovir 150 mg/kg/day intraperitoneally, four-day course beginning three days after tumor cell injection) | Necropsy finding after ganciclovir treatment (EMT6-CG-TK cells; necropsy after β-hCG declined to background) | urine concentration relative to serum concentration of β-hCG [1] | half-life of urinary β-hCG ([2]; after surgical removal of SW480-CG tumors, eight animals) [h] | Urinary β-hCG levels after tumor removal ([2]; subcutaneous SW480-CG tumors removed 18 days after implantation, within a day or two of removal)
Nc1nc(O)c2ncn(COC(CO)CO)c2n1 [ganciclovir] | did not respond; also recorded: continued to grow | began to decline one day after the start of ganciclovir treatment; also recorded: declined to background levels over the next five days | apparently tumor free, without ascites or peritoneal implants |  |  | 
β-hCG: β-subunit of human chorionic gonadotropin, glycoprotein hormone secreted by recombinant tumor cells as urinary marker (protein) SKEPLRPRCRPINATLAVEKEGCPVCITVNTTICAGYCPTMTRVLQGVLPALPQVVCNYRDVRFESIRLPGCPRGVNPVVSYAVALSCQCALCRRSTTDCGGPKDHPLTCDDPRFQDSSSSKAPPPSLPSPSRLPGPSDTPILPQ |  |  |  | 3.8±0.31 times the serum concentration | 11 ± 2.3 | rapidly dropped to undetectable levels
